Results: ChEMBL document CHEMBL3091367, “Synthesis and evaluation of the apoptosis inducing and CT DNA interaction properties of a series of 4β-carbamoyl 4'-O-demethylepipodophyllotoxins” (Eur J Med Chem, 2013)
Calls of active or inactive are those of the source. No cut-off for these calls is given here.

Legend:
[1] = test system: HeLa; experiment: Induction of apoptosis in human HeLa cells assessed as upregulation of p53 protein expression at 5 uM by Western blotting analysis; type: functional, cell-based; conditions: TDE = time-dependent effect
[2] = test system: HeLa; experiment: Induction of apoptosis in human HeLa cells assessed as upregulation of Bax protein expression at 5 uM by Western blotting analysis; type: functional, cell-based; conditions: TDE = time-dependent effect
[3] = test system: HeLa; experiment: Cell cycle arrest in human HeLa cells assessed as accumulation at S phase at 5 uM after 24 hrs by propidium iodide staining-based FACS flow cytometric analysis (reference value: 9.0%); type: functional
[4] = test system: HeLa; experiment: Cell cycle arrest in human HeLa cells assessed as accumulation at sub-G1 phase at 10 uM by propidium iodide staining-based FACS flow cytometric analysis (reference value: 4.4%); type: functional
[5] = test system: HeLa; experiment: Cell cycle arrest in human HeLa cells assessed as accumulation at G1 phase at 5 uM after 12 hrs by propidium iodide staining-based FACS flow cytometric analysis (reference value: 57.2%); type: functional
[6] = test system: DNA; experiment: Binding affinity to calf thymus DNA assessed as increase in complex fluorescence using 1 to 6 uM of DNA at 1 uM after 5 mins by fluorescence assay; type: nucleic-acid assay; conditions: Bos taurus
[7] = test system: HeLa; experiment: Cell cycle arrest in human HeLa cells assessed as accumulation at sub-G1 phase by propidium iodide staining-based FACS flow cytometric analysis; type: functional
[8] = test system: HeLa; experiment: Cell cycle arrest in human HeLa cells assessed as accumulation at S phase at 0.5 uM by propidium iodide staining-based FACS flow cytometric analysis (reference value: 16.3%); type: functional
[9] = test system: HeLa; experiment: Cell cycle arrest in human HeLa cells assessed as accumulation at sub-G1 phase at 5 uM by propidium iodide staining-based FACS flow cytometric analysis (reference value: 4.4%); type: functional
[10] = Cytotoxicity against human HCT8 cells after 48 hrs by MTT assay; type: functional, cell-based; conditions: HCT-8, 48 h
[11] = test system: HeLa; experiment: Cell cycle arrest in human HeLa cells assessed as accumulation at G1 phase at 0.5 uM by propidium iodide staining-based FACS flow cytometric analysis (reference value: 54.7%); type: functional
[12] = test system: HeLa; experiment: Cell cycle arrest in human HeLa cells assessed as accumulation at S phase at 10 uM by propidium iodide staining-based FACS flow cytometric analysis (reference value: 16.3%); type: functional
[13] = test system: HeLa; experiment: Cell cycle arrest in human HeLa cells assessed as accumulation at sub-G1 phase at 5 uM after 24 hrs by propidium iodide staining-based FACS flow cytometric analysis (reference value: 1.8%); type: functional
[14] = test system: HeLa; experiment: Induction of apoptosis in human HeLa cells assessed as upregulation of caspase-3 protein expression at 5 uM after 1 to 24 hrs by Western blotting analysis; type: functional, cell-based
[15] = test system: HeLa; experiment: Cell cycle arrest in human HeLa cells assessed as accumulation at G2/M phase at 5 uM after 24 hrs by propidium iodide staining-based FACS flow cytometric analysis (reference value: 22.7%); type: functional
[16] = test system: HeLa; experiment: Cell cycle arrest in human HeLa cells assessed as accumulation at G2/M phase at 5 uM after 12 hrs by propidium iodide staining-based FACS flow cytometric analysis (reference value: 22.7%); type: functional
[17] = test system: HeLa; experiment: Cell cycle arrest in human HeLa cells assessed as accumulation at G1 phase at 5 uM after 24 hrs by propidium iodide staining-based FACS flow cytometric analysis (reference value: 57.2%); type: functional
[18] = test system: HeLa; experiment: Cell cycle arrest in human HeLa cells assessed as accumulation at sub-G1 phase at 0.5 uM by propidium iodide staining-based FACS flow cytometric analysis (reference value: 4.4%); type: functional
[19] = test system: HeLa; experiment: Cell cycle arrest in human HeLa cells assessed as accumulation at G1 phase at 10 uM by propidium iodide staining-based FACS flow cytometric analysis (reference value: 54.7%); type: functional
[20] = test system: HeLa; experiment: Induction of apoptosis in human HeLa cells assessed as upregulation of p53 protein expression at 5 uM after 1 to 24 hrs by Western blotting analysis; type: functional, cell-based
[21] = test system: DNA; experiment: Binding affinity to calf thymus DNA assessed as change in DNA conformation from B-form to C-form at 5 to 40 ug/ml after 24 hrs by circular dichorism spectroscopy; type: nucleic-acid assay; conditions: Bos taurus
[22] = test system: HeLa; experiment: Cell cycle arrest in human HeLa cells assessed as accumulation at G2/M phase at 10 uM by propidium iodide staining-based FACS flow cytometric analysis (reference value: 15.0%); type: functional
[23] = test system: HeLa; experiment: Induction of apoptosis in human HeLa cells assessed as upregulation of Bax protein expression at 5 uM after 1 to 24 hrs by Western blotting analysis; type: functional, cell-based
[24] = test system: HeLa; experiment: Cytotoxicity against human HeLa cells after 48 hrs by MTT assay; type: functional, cell-based
[25] = test system: HeLa; experiment: Cell cycle arrest in human HeLa cells assessed as accumulation at S phase at 5 uM by propidium iodide staining-based FACS flow cytometric analysis (reference value: 16.3%); type: functional
[26] = test system: HeLa; experiment: Cell cycle arrest in human HeLa cells assessed as accumulation at G2/M phase at 5 uM by propidium iodide staining-based FACS flow cytometric analysis (reference value: 15.0%); type: functional
[27] = test system: HeLa; experiment: Cell cycle arrest in human HeLa cells assessed as accumulation at G1 phase at 5 uM by propidium iodide staining-based FACS flow cytometric analysis (reference value: 54.7%); type: functional
[28] = test system: HeLa; experiment: Induction of apoptosis in human HeLa cells assessed as upregulation of caspase-3 protein expression at 5 uM by Western blotting analysis; type: functional, cell-based; conditions: TDE = time-dependent effect
[29] = test system: A549; experiment: Cytotoxicity against human A549 cells after 48 hrs by MTT assay; type: functional, cell-based; conditions: A549, 48 h
[30] = test system: HeLa; experiment: Cell cycle arrest in human HeLa cells assessed as accumulation at S phase at 5 uM after 12 hrs by propidium iodide staining-based FACS flow cytometric analysis (reference value: 9.0%); type: functional
[31] = test system: HL-60; experiment: Cytotoxicity against human HL60 cells after 48 hrs by cell counting kit-8 assay; type: functional, cell-based; conditions: HL-60, 48 h
[32] = test system: HeLa; experiment: Cell cycle arrest in human HeLa cells assessed as accumulation at G2/M phase at 0.5 uM by propidium iodide staining-based FACS flow cytometric analysis (reference value: 15.0%); type: functional
[33] = test system: HeLa; experiment: Cell cycle arrest in human HeLa cells assessed as accumulation at sub-G1 phase at 5 uM after 12 hrs by propidium iodide staining-based FACS flow cytometric analysis (reference value: 1.8%); type: functional

COc1cc([C@@H]2c3cc4c(cc3[C@@H](OC(=O)N3CCN(c5ccc([N+](=O)[O-])cc5)CC3)[C@H]3COC(=O)[C@H]23)OCO4)cc(OC)c1O
Activity [1]: tde
Activity [2]: tde
Activity [3]: 10.2%
Activity [4]: 24.7%
Activity [5]: 43.8%
Activity [6]: Active
Activity [7]: Dose-dependent effect
Activity [8]: 9.8%
Activity [9]: 23%
IC50 [10]: < 10 nM
Activity [11]: 35.9%
Activity [12]: 13.1%
Activity [13]: 11.1%
Activity [14]: Active
Activity [15]: 38.1%
Activity [16]: 29.9%
Activity [17]: 33.3%
Activity [18]: 21.7%
Activity [19]: 26%
Activity [20]: Active
Activity [21]: Active
Activity [22]: 29.1%
Activity [23]: Active
IC50 [24]: 74 nM
Activity [25]: 10.2%
Activity [26]: 22.5%
Activity [27]: 33.9%
Activity [28]: tde
IC50 [29]: 1670 nM
Activity [30]: 10.2%
IC50 [31]: 170 nM
Activity [32]: 20.5%
Activity [33]: 4.1%

COc1cc([C@@H]2c3cc4c(cc3[C@@H](OC(=O)N3CCN(C5CCCC5)CC3)[C@H]3COC(=O)[C@H]23)OCO4)cc(OC)c1O
IC50 [10]: 1620 nM
IC50 [24]: 4400 nM
IC50 [29]: 3890 nM
IC50 [31]: < 10 nM

COc1cc([C@@H]2c3cc4c(cc3[C@@H](OC(=O)NC3CCCCC3)[C@H]3COC(=O)[C@H]23)OCO4)cc(OC)c1O
IC50 [10]: 1240 nM
IC50 [24]: 5400 nM
IC50 [29]: 26100 nM
IC50 [31]: 270 nM

COc1cc([C@@H]2c3cc4c(cc3[C@@H](OC(=O)NC3CCCC3)[C@H]3COC(=O)[C@H]23)OCO4)cc(OC)c1O
IC50 [10]: 330 nM
IC50 [24]: 3750 nM
IC50 [29]: 4540 nM
IC50 [31]: 210 nM

COc1cc([C@@H]2c3cc4c(cc3[C@@H](OC(=O)N3CCN(c5ccc(F)cc5)CC3)[C@H]3COC(=O)[C@H]23)OCO4)cc(OC)c1O
IC50 [10]: 10 nM
IC50 [24]: 1580 nM
IC50 [29]: 5240 nM
IC50 [31]: 330 nM

COc1cc([C@@H]2c3cc4c(cc3[C@@H](OC(=O)N[C@H](Cc3ccccc3)C(=O)N3CCN(c5ccc([N+](=O)[O-])cc5)CC3)[C@H]3COC(=O)[C@H]23)OCO4)cc(OC)c1O
IC50 [10]: 70 nM
IC50 [24]: 28600 nM
IC50 [29]: > 100000 nM
IC50 [31]: 40 nM

COc1cc([C@@H]2c3cc4c(cc3[C@@H](OC(=O)N3CCOCC3)[C@H]3COC(=O)[C@H]23)OCO4)cc(OC)c1O
IC50 [10]: 150 nM
IC50 [24]: 8590 nM
IC50 [29]: 8550 nM
IC50 [31]: 10 nM

COc1cc([C@@H]2c3cc4c(cc3[C@@H](OC(=O)N3CCOCC3)[C@H]3COC(=O)[C@H]23)OCO4)cc(OC)c1OC(=O)N1CCOCC1
IC50 [10]: 130 nM
IC50 [24]: > 100000 nM
IC50 [29]: > 100000 nM
IC50 [31]: < 10 nM

COc1cc([C@@H]2c3cc4c(cc3[C@@H](OC(=O)N[C@@H](CCSC)C(=O)N3CCN(c5ccc([N+](=O)[O-])cc5)CC3)[C@H]3COC(=O)[C@H]23)OCO4)cc(OC)c1O
IC50 [10]: 570 nM
IC50 [24]: 49400 nM
IC50 [29]: > 100000 nM
IC50 [31]: 10 nM

COc1cc([C@@H]2c3cc4c(cc3[C@@H](OC(=O)NC3CC3)[C@H]3COC(=O)[C@H]23)OCO4)cc(OC)c1O
IC50 [10]: 80 nM
IC50 [24]: 10800 nM
IC50 [29]: 18300 nM
IC50 [31]: 160 nM

COc1cc([C@@H]2c3cc4c(cc3[C@@H](O[C@@H]3O[C@@H]5CO[C@@H](C)O[C@H]5[C@H](O)[C@H]3O)[C@H]3COC(=O)[C@H]23)OCO4)cc(OC)c1O [ETOPOSIDE]
IC50 [24]: 2910 nM

CCCNC(=O)O[C@@H]1c2cc3c(cc2[C@@H](c2cc(OC)c(O)c(OC)c2)[C@H]2C(=O)OC[C@@H]21)OCO3
IC50 [10]: 185 nM
IC50 [24]: 13200 nM
IC50 [29]: 8830 nM
IC50 [31]: 90 nM

COc1cc([C@@H]2c3cc4c(cc3[C@@H](OC(=O)N[C@H](CCSC)C(=O)N3CCN(c5ccc([N+](=O)[O-])cc5)CC3)[C@H]3COC(=O)[C@H]23)OCO4)cc(OC)c1O
IC50 [10]: 850 nM
IC50 [24]: > 100000 nM
IC50 [29]: > 100000 nM
IC50 [31]: 20 nM

COc1cc([C@@H]2c3cc4c(cc3[C@@H](OC(=O)N3CCN(c5ccc([N+](=O)[O-])cc5)CC3)[C@H]3COC(=O)[C@H]23)OCO4)cc(OC)c1OC(=O)N1CCN(c2ccc([N+](=O)[O-])cc2)CC1
IC50 [10]: 10 nM
IC50 [29]: 56900 nM
IC50 [31]: 350 nM

COc1cc([C@@H]2c3cc4c(cc3[C@@H](OC(=O)N[C@@H](Cc3ccccc3)C(=O)N3CCN(c5ccc([N+](=O)[O-])cc5)CC3)[C@H]3COC(=O)[C@H]23)OCO4)cc(OC)c1O
IC50 [10]: 10 nM
IC50 [24]: 4130 nM
IC50 [29]: 9550 nM
IC50 [31]: 30 nM

COc1cc([C@@H]2c3cc4c(cc3[C@@H](OC(=O)N[C@H](C(=O)N3CCN(c5ccc([N+](=O)[O-])cc5)CC3)C(C)C)[C@H]3COC(=O)[C@H]23)OCO4)cc(OC)c1O
IC50 [10]: 10 nM
IC50 [24]: > 100000 nM
IC50 [29]: 8320 nM
IC50 [31]: 260 nM

COc1cc([C@@H]2c3cc4c(cc3[C@@H](OC(=O)N3CCN(C)CC3)[C@H]3COC(=O)[C@H]23)OCO4)cc(OC)c1O
IC50 [10]: 30 nM
IC50 [24]: 20000 nM
IC50 [29]: 4180 nM
IC50 [31]: 190 nM

COc1cc([C@@H]2c3cc4c(cc3[C@@H](OC(=O)N[C@@H](C)C(=O)N3CCN(c5ccc([N+](=O)[O-])cc5)CC3)[C@H]3COC(=O)[C@H]23)OCO4)cc(OC)c1O
IC50 [10]: 710 nM
IC50 [24]: > 100000 nM
IC50 [29]: 19000 nM
IC50 [31]: 130 nM
